In data set [1] the test system is production of TNF-α in rat PBMCs. The data set can be described thus: Inhibition of TNF-α production in rat PBMCs (LPS/IFN-γ stimulated, ELISA). The data set is classed as cell-based. To be noted: PBMC; rat PBMCs, LPS + IFN-γ, 18 hours. On the procedure:
(§1) Compounds of this invention were evaluated for their ability to inhibit the production of TNF-α in stimulated immune cells. […] Compounds of the present invention were evaluated for their therapeutic activity in animal models for inflammatory or immunological disorders. Also compounds of this invention were assayed for their ability to inhibit PDE4 isozymes.
Inhibition of TNF-α Production in Rat PBMCs: Compounds of the present invention were evaluated for their ability to inhibit the production of TNF-α in rat peripheral blood mononuclear cells (PBMCs) as described in the literature. [Exp. Geront. vol 37, 235-247 (2002)] In brief, 6 ml rat blood drawn from the abdominal vein as treated with ACD (acid/citrate/dextrose) was carefully added in a tube containing 6 ml Ficoll 1077, and the tube was centrifuged for 30 min at 1500 rpm (415 G) at room temperature. The cell fraction (middle fraction) was suspended in a 50 ml tube containing phosphate buffered saline (PBS). The tube was centrifuged for 5 min at 2000 rpm (737 G). The resulting pellet was suspended in 6 ml PBS and 6 ml Ficoll 1077, and centrifuged for 30 min at 1500 rpm (415 G) at room temperature to remove remaining plasma. The cell fraction was suspended in PBS and centrifuged for 5 min at 2000 rpm. Such a washing was repeated twice. Then the collected cells were suspended in 10 ml RPMI-1640 containing 10% FBS and further diluted to contain 4×10^6 cells per ml. The cell suspension was dispensed into a 96-well plate at 100 μl per well, which was pre-supplemented with 1 μl of either DMSO (placebo) or a DMSO stock solution containing a designated concentration of a compound of this invention. The plate was cultured for an hour at 37° C. under 5% CO2 and 95% O2. To each well, was added 100 μl RPMI-1640 containing 0.1 μg/ml LPS, 5 U/ml IFN-γ, and 10% FBS. Then the plate was subjected to a culture for 18 hours at 37° C. under 5% CO2 and 95% O2. An aliquot of the supernatant from each well was subjected to an ELISA assay to determine the TNF-α level in the well.

For data set [2], the system named is production of TNF-α in mice stimulated with LPS. The data set can be described thus: In vivo inhibition of TNF-α production in mice stimulated with LPS. To be noted: Mus musculus, 2 h, LPS i.p., plasma at hour 2, read-out: % Inhibition of in vivo TNF-α production @ dose; for inhibition in vivo at 3 mg/kg: 3 mg/kg oral gavage. On the procedure:
[J. Pharmacol. Exp. Therapeut. vol 279, 1453-1461 (1996)] In brief, either a compound of the instant invention with vehicle or vehicle only (5% Tween 80) was administered by oral gavage (10 ml/kg body weight) at hour 0 to mice (Balb/C or ICR, 25˜30 g) fasted overnight. The mice were subjected to a peritoneal injection with […] LPS per mouse at hour 0.5, and blood was drawn from the abdominal vein at hour 2 following euthanasia with CO2. Then plasma separated from the drawn blood by centrifugation was subjected to an ELISA assay to measure the level of TNF-α.

Another data set addresses T1, PDE4A (Homo sapiens, UniProt P27815).
T1 construct: purchased Fab Gennix International Inc. (Frisco, Tex./USA)
The data set can be described thus: Inhibition of PDE4 isozymes ([3H]cAMP SPA): PDE4A. The class given is biochemical. The settings on record: @ 0.5 μg/ml, pH 7.4 Tris buffer. The procedure:
(§2) Inhibition of PDE4 Isozymes: Compounds of the instant invention were evaluated for their ability to inhibit isozymes of phosphodiesterase 4 (PDE4) obtained from Fab Gennix International Inc. (Frisco, Tex./USA) according to a literature method. […] In brief, a compound at a designated dose was assayed for their ability to inhibit the hydrolysis of cAMP by a PDE4 isozyme in pH 7.4 Tris buffer. The resulting level of cAMP was determined by the scintillation proximity assay (SPA) using a SPA kit from Amersham Biosciences according to the supplier's instruction manual (TRKQ7090 Phosphodiesterase [^3H]cAMP SPA enzyme assay).

The next data set addresses T2, PDE4D (Homo sapiens, UniProt Q08499).
T2 construct: purchased Fab Gennix International Inc. (Frisco, Tex./USA)
The data set can be described thus: Inhibition of PDE4 isozymes ([3H]cAMP SPA): PDE4D. The data set is classed as biochemical. The settings on record: @ 0.1 μg/ml, pH 7.4 Tris buffer. On the procedure: as §2

In data set [3] the test system is production of TNF-α in human PBMCs. The experiment in a line: Inhibition of TNF-α production in human PBMCs (ELISA). The class given is cell-based. To be noted: PBMC. On the procedure:
as §1
Inhibition of TNF-α Production in Human PBMCs: Compounds of the present invention were evaluated for their ability to inhibit the production of TNF-α in human PBMCs as described in the literature. [J. Med. Chem. vol 39, 3238-3240 (1996)] Blood was freshly drawn from healthy human subjects as treated with ACD to isolate human PBMCs according to the procedure employed for rat PBMCs. The employed assay method for the ELISA against human TNF-α was essentially identical to that for the rat TNF-α ELISA assay.
For orientation: An ELISA detects its analyte on a solid surface through an enzyme-linked reagent.

In data set [4] the test system is cAMP degradation in U937 cells. The experiment in a line: In vitro inhibition of cAMP degradation in U937 cells (forskolin, cAMP EIA). The data set is classed as cell-based. The settings on record: Homo sapiens, U-937, 10 μM forskolin. On the procedure:
In vitro Inhibition of cAMP Degradation in U937 Cells: Compounds of this invention were evaluated for their ability to inhibit in cells the hydrolysis of cAMP induced by forskolin, an adenylate cyclase stimulator. In brief, 3×10^5 U937 cells per well on a 96-well plate were incubated for 10 min at 37° C. in 200 μl RPMI-1640 containing 10% FBS, which was followed by treatment of either DMSO or a DMSO stock solution of a compound of the present invention at a designated dose. Then the cells were stimulated with 10 μM forskolin for 10 min at 37° C. The plate was centrifuged for 5 min at 1500 rpm. 120 μl of the supernatant was carefully removed from each well and 200 μl of lysis agent 1B was added to the well. Then the cell lysate was assayed to determine the level of cAMP by enzyme immunoassay (EIA) using a cAMP EIA kit from Amersham Pharmacia Biotech (Kit #RPN225). IC50's were determined for compounds of this invention from dose response curves for cAMP levels.

Data set [5] has as its system colitis induced by dextran sulfate sodium (DSS) in Balb/c mice. The experiment in a line: DSS-induced colitis in mice. The data set is classed as in vivo. The settings on record: 50 mg/kg BID oral, day 11, p>0.05.
Experimental: Therapeutic Effect in DSS-induced Colitis: Compounds of the present invention were evaluated for their ability to treat colitis induced by dextran sulfate sodium (DSS) in mice according to the literature. […] In brief, female Balb/c mice weighing 16-20 g were randomized into groups (5˜6 per group) and were allowed from day 1 free access to water containing 5% DSS. A compound of this invention or sulfasalazine in 5% Tween 80 at 10 ml/kg was orally administered twice a day. Clinical activity score of each animal was measured on a daily basis by evaluating the stool consistency, body weight and rectal bleeding.

Structures are written as SMILES. Values after ≈ are worked out from the molar mass of the structure shown.

In general, melting point refers to the temperature of the solid-liquid transition. A word on the IC50: it is the concentration that gives 50% inhibition. What is called inhibition in vivo is the change of the read-out against control, counted positive when it falls. One may read the inhibition as the change of the read-out against control, counted positive when it falls.

T1 sequence (P27815 whole entry): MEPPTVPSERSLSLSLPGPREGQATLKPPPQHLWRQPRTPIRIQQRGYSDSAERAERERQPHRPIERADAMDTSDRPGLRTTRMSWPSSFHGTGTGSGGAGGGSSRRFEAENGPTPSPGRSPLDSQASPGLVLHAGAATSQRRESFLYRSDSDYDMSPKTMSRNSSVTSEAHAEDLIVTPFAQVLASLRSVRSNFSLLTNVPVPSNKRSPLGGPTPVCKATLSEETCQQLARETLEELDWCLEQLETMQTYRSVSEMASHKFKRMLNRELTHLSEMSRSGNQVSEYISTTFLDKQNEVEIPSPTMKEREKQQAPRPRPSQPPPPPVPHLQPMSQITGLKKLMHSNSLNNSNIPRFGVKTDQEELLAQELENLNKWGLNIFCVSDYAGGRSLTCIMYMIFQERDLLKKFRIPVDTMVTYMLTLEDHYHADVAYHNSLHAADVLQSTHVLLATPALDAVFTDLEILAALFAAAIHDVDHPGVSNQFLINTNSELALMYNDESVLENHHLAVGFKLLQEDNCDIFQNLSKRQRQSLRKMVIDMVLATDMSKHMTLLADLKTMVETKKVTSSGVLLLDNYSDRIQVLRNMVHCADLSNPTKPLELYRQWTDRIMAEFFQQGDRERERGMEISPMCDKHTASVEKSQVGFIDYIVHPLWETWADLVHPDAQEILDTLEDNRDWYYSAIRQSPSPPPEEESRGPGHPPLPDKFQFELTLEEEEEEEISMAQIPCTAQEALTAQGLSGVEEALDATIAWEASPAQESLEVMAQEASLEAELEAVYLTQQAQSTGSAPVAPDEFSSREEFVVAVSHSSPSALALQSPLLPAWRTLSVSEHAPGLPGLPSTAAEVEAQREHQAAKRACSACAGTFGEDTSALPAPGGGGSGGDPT
T2 sequence (Q08499 whole entry): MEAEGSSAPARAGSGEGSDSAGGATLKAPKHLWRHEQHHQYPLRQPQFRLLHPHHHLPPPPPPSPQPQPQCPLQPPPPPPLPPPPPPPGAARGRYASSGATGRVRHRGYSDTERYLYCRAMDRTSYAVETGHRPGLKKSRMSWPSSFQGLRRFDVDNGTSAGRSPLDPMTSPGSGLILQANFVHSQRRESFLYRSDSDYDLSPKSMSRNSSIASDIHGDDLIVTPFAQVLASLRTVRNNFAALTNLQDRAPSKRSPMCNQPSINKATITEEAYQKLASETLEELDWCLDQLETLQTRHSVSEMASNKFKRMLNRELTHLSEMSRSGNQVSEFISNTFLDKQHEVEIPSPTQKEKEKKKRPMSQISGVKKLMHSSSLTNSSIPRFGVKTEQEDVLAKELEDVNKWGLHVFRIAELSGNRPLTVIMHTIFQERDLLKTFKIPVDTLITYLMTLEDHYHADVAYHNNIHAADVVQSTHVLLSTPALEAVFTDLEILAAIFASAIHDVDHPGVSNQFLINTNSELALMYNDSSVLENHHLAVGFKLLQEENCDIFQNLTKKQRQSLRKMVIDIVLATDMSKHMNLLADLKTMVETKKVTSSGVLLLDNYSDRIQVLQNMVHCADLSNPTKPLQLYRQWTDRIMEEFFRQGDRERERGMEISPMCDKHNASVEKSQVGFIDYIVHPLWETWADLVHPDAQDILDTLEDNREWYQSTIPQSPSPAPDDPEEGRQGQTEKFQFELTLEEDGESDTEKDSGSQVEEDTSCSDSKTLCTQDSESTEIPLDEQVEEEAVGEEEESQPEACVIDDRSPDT

In the case of `ON=C1CCC(C2CCCC2)=C1c1ccc(F)cc1` [Example 1, 3-cyclopentyl-2-(4-fluorophenyl)-2-cyclopenten-1-one oxime], the melting point lay within 204 to 205 °C. The half-maximal inhibitory concentration (IC50) in data set [1] came to 0.12 µg/mL. For the same compound, the inhibition in vivo at 3 mg/kg in data set [2] was 72%. Besides, at PDE4A, the inhibition at 0.5 µg/mL worked out at 72%. This compound displayed an inhibition at 0.1 µg/mL at PDE4D of 79%.
`ON=C1CCC(C2CCCC2)=C1c1ccc(F)c(F)c1` [Example 2, 3-cyclopentyl-2-(3,4-difluorophenyl)-2-cyclopenten-1-one oxime] gave a melting point of 173 to 174 °C. Besides, the IC50 in data set [1] was 0.035 µg/mL. Moreover, in data set [2] (0.3 mg/kg oral gavage), the inhibition in vivo at 0.3 mg/kg amounted to 78%. Besides, in data set [3], it took 0.072 µg/mL (≈ 0.26 µM) to reach half-maximal inhibition (IC50). For the same compound, half-maximal inhibition in data set [4] (IC50) required 0.1 µg/mL (≈ 0.361 µM).
`ON=C1CCC(C2CCCC2)=C1c1ccc(F)c(Cl)c1` [Example 3, 2-(3-chloro-4-fluorophenyl)-3-cyclopentyl-2-cyclopenten-1-one oxime] returned a melting point of 143 to 144 °C. In data set [1], the 50% inhibitory concentration (IC50) was determined as 0.053 µg/mL. This compound also registered an inhibition at 0.5 µg/mL on PDE4A of 89%. This compound registered an inhibition at 0.1 µg/mL on PDE4D of 78%.
For `ON=C1CCC(C2CCCC2)=C1c1ccc2c(c1)OCO2` [Example 10, 3-cyclopentyl-2-(3,4-methylenedioxyphenyl)-2-cyclopenten-1-one oxime], in that order: 186 to 188 °C, 0.097 µg/mL, 33% and 38%.
In turn, `ON=C1CCC(C2CCCCC2)=C1c1ccc(F)c(Cl)c1` [Example 28, 2-(3-chloro-4-fluorophenyl)-3-cyclohexyl-2-cyclopenten-1-one oxime] had a melting point of 158 to 160 °C. Also, in data set [1], the IC50 stood at 0.13 µg/mL. The inhibition in vivo at 3 mg/kg in data set [2] worked out at 88%. For the same compound, the inhibition at 0.5 µg/mL against PDE4A is 58%. For the same compound, 0.1 µg/mL produced 87% inhibition on PDE4D.
`CCCCC1=C(c2ccc3c(c2)OCO3)C(=NO)CC1` [Example 45, 3-butyl-2-(3,4-methylenedioxyphenyl)-2-cyclopenten-1-one oxime] displayed a melting point of 116 to 120 °C. Besides, in data set [1], the IC50 turned out to be 0.69 µg/mL. The inhibition in vivo at 1 mg/kg in data set [2] (1 mg/kg oral gavage) was 42%. The IC50 in data set [3] was determined as 0.8 µg/mL (≈ 2.93 µM). Further, the IC50 in data set [4] was determined as 0.87 µg/mL (≈ 3.18 µM).
In turn, `CCCC1=C(c2ccc(F)c(F)c2)C(=NO)CC1` [Example 79, 2-(3,4-difluorophenyl)-3-propyl-2-cyclopenten-1-one oxime] came in with a melting point of 136 to 137 °C. Also, the half-inhibitory concentration (IC50) in data set [1] came out at 0.18 µg/mL. Besides, the inhibition in vivo at 3 mg/kg in data set [2] is 85%. Moreover, on PDE4A, at 0.5 µg/mL the inhibition was 0%. For the same compound, the inhibition at 0.1 µg/mL against PDE4D was found to be 23%.
In the case of `COc1ccc(C2CNC(=O)C2)cc1OC1CCCC1` (centres unmarked) [Rolipram, rolipram, reference compound], the IC50 is 0.05 to 0.1 µg/mL in data set [1], 0.01 to 0.1 µg/mL (≈ 0.0363 to 0.363 µM) in data set [3] and 0.27 µg/mL (≈ 0.981 µM) in data set [4]. Besides, in data set [2] (0.2 mg/kg oral gavage), the inhibition in vivo at 0.2 mg/kg is ~50%.
Turning to `O=C(O)c1cc(/N=N/c2ccc(S(=O)(=O)Nc3ccccn3)cc2)ccc1O` [sulfasalazine], the “improvement in the clinical score activity from the control group” value in data set [5] worked out at 19%.

These data come from patent publication US8013187B2, “2-cyclopenten-1-one oxime derivatives inhibiting production of TNF-α” (Amorepacific Corporation, priority 2004, dated 2011).
